Among the data in patent US20230159509A1 (Amathus Therapeutics, Inc., priority 2020, published 2023) are EC50 and Emax values, retold here.

Molecules are shown by their SMILES. Where only a bound is given, the exact number is not on record here.

The assay has as its target T1, TRAP1 enzyme (Homo sapiens, UniProt Q12931).
T1 construct: 150 nM Trap1 enzyme was incubated with various concentrations of the test compound
T1 sequence (Q12931 60-704): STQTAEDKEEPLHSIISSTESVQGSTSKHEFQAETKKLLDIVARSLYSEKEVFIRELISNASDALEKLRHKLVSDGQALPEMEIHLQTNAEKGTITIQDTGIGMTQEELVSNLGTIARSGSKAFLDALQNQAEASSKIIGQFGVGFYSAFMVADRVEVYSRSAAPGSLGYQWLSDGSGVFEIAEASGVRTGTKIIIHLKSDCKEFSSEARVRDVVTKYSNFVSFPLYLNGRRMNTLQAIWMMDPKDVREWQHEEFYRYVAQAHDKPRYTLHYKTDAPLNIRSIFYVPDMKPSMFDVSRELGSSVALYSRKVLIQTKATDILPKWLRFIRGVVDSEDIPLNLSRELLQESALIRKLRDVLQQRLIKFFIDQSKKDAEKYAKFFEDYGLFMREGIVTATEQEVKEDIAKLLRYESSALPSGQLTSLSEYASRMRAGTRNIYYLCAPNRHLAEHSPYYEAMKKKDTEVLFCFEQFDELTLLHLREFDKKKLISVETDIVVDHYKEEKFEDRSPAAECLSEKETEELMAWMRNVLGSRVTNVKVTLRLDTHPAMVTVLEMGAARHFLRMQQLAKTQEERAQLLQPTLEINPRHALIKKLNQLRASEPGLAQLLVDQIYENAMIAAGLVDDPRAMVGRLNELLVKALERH
The experiment in a line: ADP Glo assay of TRAP1 ATPase activity. Conditions: for EC50: concentration for half maximal activation, read-out: ADP GLO DRC: GeoMean EC50; for Emax: maximal percent activation, read-out: ADP GLO DRC: Mean Emax. Format: biochemical. As for the experimental part: Potency of test compounds to modulate the ATPase activity of TRAP1 enzyme was evaluated using ADP Glo assay. The assay is based on quantification of the ADP generated from ATP in the ATPase reaction. The assay is performed in two steps; first, after the ATPase reaction an equal volume of ADP-Glo™ Reagent is added to terminate the ATPase reaction and deplete the remaining ATP. Second, the Kinase Detection Reagent is added to simultaneously convert ADP to ATP and allow the newly synthesized ATP to be measured using a luciferase/luciferin reaction.
All the assays were carried out in a 384-well Proxiplate. The buffer used was 25 mM Pipes pH-7.5, 40 mM KCl, 0.05 mM MgCl2, 0.025% BSA, 0.316 mM EGTA, 0.003% Empigen, 0.01% Igepal. 150 nM Trap1 enzyme was incubated with various concentrations of the test compound (0.79 μM-100 μM) at 37° C. for 30 mins (except in blank wells). 20 μM ATP was added to each well to start the reaction. The plate was spun for 1 min at 1200 rpm and then incubated at 37° C. for 60 mins. 5 μl of ADP Glo reagent was added to all the wells and spun the plate for 1 min at 1200 rpm and kept it on a shaker at ambient temperature for 60 mins. 10 μl of kinase detection mix was added to all the wells and the plate was read for Luminescence at 495 nm. The amount of ADP released was estimated from ATP/ADP standard curve generated at the same experimental conditions. Emax (Maximal percent activation) and EC50 (concentration for half maximal activation) were estimated by fitting the dose response data to a sigmoidal curve fitting equation using Graphpad Prism software V. 8.
(In ADP-Glo the light output rises with the ADP produced.)

In the case of `COc1ncc(NC(=O)c2noc3c2CCCC3)cc1S(=O)(=O)Nc1ccc(Cl)cc1` [compound 1194, N-(5-(N-(4-chlorophenyl)sulfamoyl)-6-methoxypyridin-3-yl)-4,5,6,7-tetrahydrobenzo[d]isoxazole-3-carboxamide], the EC50 – broadly, the concentration needed to bring the measured effect to its halfway point – is 20 to 100 µM and the Emax (as a rule, the size of the effect at its maximum, as opposed to the concentration needed) is 119 to 159%.
Regarding `COc1ncc(NC(=O)c2ncccc2C(=O)c2ccccc2)cc1S(=O)(=O)Nc1ccc(Cl)cc1` [compound 1195, 3-benzoyl-N-(5-(N-(4-chlorophenyl)sulfamoyl)-6-methoxypyridin-3-yl)picolinamide], the EC50 is 10 to 20 µM and the Emax lay in the range of 160 to 199%.
The corresponding values for `COc1ncc(NC(=O)c2ccccc2C(=O)c2ccccc2)cc1S(=O)(=O)Nc1ccc(Cl)cc1` [compound 1197, 2-benzoyl-N-(5-(N-(4-chlorophenyl)sulfamoyl)-6-methoxypyridin-3-yl)benzamide] are < 10 µM and 160 to 199%.
Regarding `COc1ncc(NC(=O)c2ccc3nccnc3c2)cc1S(=O)(=O)Nc1ccc(Cl)cc1` [compound 1198, N-(5-(N-(4-chlorophenyl)sulfamoyl)-6-methoxypyridin-3-yl) quinoxaline-6-carboxamide], the EC50 fell in the range of 10 to 20 µM and the Emax was in the range of 160 to 199%.
As to `COc1ncc(NC(=O)c2cc(-n3ccnc3)ccn2)cc1S(=O)(=O)Nc1ccc(Cl)cc1` [compound 1203, N-(5-(N-(4-chlorophenyl)sulfamoyl)-6-methoxypyridin-3-yl)-4-(1H-imidazol-1-yl)picolinamide], the EC50 fell in the range of 10 to 20 µM and the Emax fell in the range of 160 to 199%.
Turning to `COc1ncc(NC(=O)c2cccc(-n3cncn3)c2)cc1S(=O)(=O)Nc1ccc(Cl)cc1` [compound 1204, N-(5-(N-(4-chlorophenyl)sulfamoyl)-6-methoxypyridin-3-yl)-3-(1H-1,2,4-triazol-1-yl)benzamide], the concentration for a half-maximal effect (EC50) is 10 to 20 µM and the Emax fell in the range of 160 to 199%.
In the case of `COc1ncc(NC(=O)C(C)n2cc(Br)cn2)cc1S(=O)(=O)Nc1ccc(Cl)cc1` (stereo not drawn) [compound 1213, (4-bromo-1H-pyrazol-1-yl)-N-(5-(N-(4-chlorophenyl)sulfamoyl)-6-methoxypyridin-3-yl)propanamide], the EC50 lay within 20 to 100 µM and the maximal response (Emax) was 119 to 159%.
With `Cc1ncoc1C(=O)Nc1cc(S(=O)(=O)Nc2ccc(Cl)cc2)cc[n+]1[O-]` [compound 1294, 4-(N-(4-chlorophenyl)sulfamoyl)-2-(4-methyloxazole-5-carboxamido)pyridine 1-oxide], the EC50 was 20 to 100 µM and the Emax lay within 119 to 159%.
In the case of `COc1ncc(NC(=O)c2ncc(-c3ccccc3)o2)cc1S(=O)(=O)Nc1c(Cl)cccc1C(F)(F)F` [compound 1303, N-(5-(N-(2-chloro-6-(trifluoromethyl)phenyl)sulfamoyl)-6-methoxypyridin-3-yl)-5-phenyloxazole-2-carboxamide], the EC50 lay within 10 to 20 µM and the Emax was 160 to 199%.
With `COc1ncc(NC(=O)c2coc(-c3ccccc3)n2)cc1S(=O)(=O)Nc1c(C)cccc1C` [compound 1312, N-(5-(N-(2,6-dimethylphenyl)sulfamoyl)-6-methoxypyridin-3-yl)-2-phenyloxazole-4-carboxamide], the EC50 was < 10 µM and the Emax lay within 200 to 300%.
Take `O=C(Nc1cc(S(=O)(=O)Nc2ccc(Cl)cc2)cc[n+]1[O-])c1cnc(-c2ccccc2)[nH]1` [compound 1321, 4-(N-(4-chlorophenyl)sulfamoyl)-2-(2-phenyl-1H-imidazole-5-carboxamido) pyridine 1-oxide]: the EC50 was 10 to 20 µM and the Emax was 160 to 199%.
The corresponding values for `COc1ncc(NC(=O)c2csc(-c3ccccc3)n2)cc1S(=O)(=O)Nc1ccccc1C` [compound 1350, N-(6-methoxy-5-(N-(o-tolyl)sulfamoyl)pyridin-3-yl)-2-phenylthiazole-4-carboxamide] are < 10 µM and 119 to 159%.
Regarding `COc1ncc(NC(=O)c2csc(-c3ccncc3)n2)cc1S(=O)(=O)Nc1c(C)cccc1C` [compound 1351, N-(5-(N-(2,6-dimethylphenyl)sulfamoyl)-6-methoxypyridin-3-yl)-2-(pyridin-4-yl)thiazole-4-carboxamide], the EC50 lay in the range of 10 to 20 µM and the Emax was in the range of 119 to 159%.
The corresponding values for `COc1ncc(NC(=O)c2ncc(-c3ccccc3)o2)cc1S(=O)(=O)Nc1c(C#N)cccc1C(F)(F)F` [compound 1358, N-(5-(N-(2-cyano-6-(trifluoromethyl)phenyl)sulfamoyl)-6-methoxypyridin-3-yl)-5-phenyloxazole-2-carboxamide] are 20 to 100 µM and 200 to 300%.
Take `COc1ncc(NC(=O)c2cn(C)c3ncccc23)cc1S(=O)(=O)Nc1ccc(Cl)cc1` [compound 1359, N-(5-(N-(4-chlorophenyl)sulfamoyl)-6-methoxypyridin-3-yl)-1-methyl-1H-pyrrolo [2,3-b]pyridine-3-carboxamide]: the 50% effective concentration (EC50) lay in the range of 20 to 100 µM and the Emax was 119 to 159%.
Take `O=C(Nc1cc(S(=O)(=O)Nc2ccc(Cl)cc2)ccn1)c1cnc(-c2ccccc2)[nH]1` [compound 1361, N-(4-(N-(4-chlorophenyl)sulfamoyl)pyridin-2-yl)-2-phenyl-1H-imidazole-5-carboxamide]: the EC50 was in the range of 10 to 20 µM and the Emax was 200 to 300%.
For `COc1ncc(NC(=O)c2ccnc3c2OCCC3)cc1S(=O)(=O)Nc1c(C)cccc1C` [compound 1364, N-(5-(N-(2,6-dimethylphenyl)sulfamoyl)-6-methoxypyridin-3-yl)-3,4-dihydro-2H-pyrano[3,2-b]pyridine-8-carboxamide], the EC50 was in the range of 20 to 100 µM and the Emax is > 300%.
In the case of `COc1ncc(NC(=O)c2cccc3ocnc23)cc1S(=O)(=O)Nc1c(C)cccc1C` [compound 1366, N-(5-(N-(2,6-dimethylphenyl)sulfamoyl)-6-methoxypyridin-3-yl)benzo[d]oxazole-4-carboxamide], the EC50 is < 10 µM and the Emax was in the range of 200 to 300%.
The corresponding values for `COc1ncc(NC(=O)c2cccc3ncoc23)cc1S(=O)(=O)Nc1c(C)cccc1C` [compound 1367, N-(5-(N-(2,6-dimethylphenyl)sulfamoyl)-6-methoxypyridin-3-yl)benzo[d]oxazole-7-carboxamide] are 20 to 100 µM and > 300%.
The corresponding values for `COc1ncc(NC(=O)c2ncc(-c3ccccc3)o2)cc1S(=O)(=O)Nc1c(F)cccc1C(F)(F)F` [compound 1377, N-(5-(N-(2-fluoro-6-(trifluoromethyl)phenyl)sulfamoyl)-6-methoxypyridin-3-yl)-5-phenyloxazole-2-carboxamide] are 20 to 100 µM and 160 to 199%.
The corresponding values for `COc1ncc(NC(=O)c2cccc3c2OC(C)(C)C3)cc1S(=O)(=O)Nc1c(C)cccc1C` [compound 1379, N-(5-(N-(2,6-dimethylphenyl)sulfamoyl)-6-methoxypyridin-3-yl)-2,2-dimethyl-2,3-dihydrobenzofuran-7-carboxamide] are 20 to 100 µM and 200 to 300%.
In the case of `COc1ncc(NC(=O)c2cc3c(C)nn(C)c3s2)cc1S(=O)(=O)Nc1c(C)cccc1C` [compound 1380, N-(5-(N-(2,6-dimethylphenyl)sulfamoyl)-6-methoxypyridin-3-yl)-1,3-dimethyl-1H-thieno[2,3-c]pyrazole-5-carboxamide], the EC50 is < 10 µM and the Emax was > 300%.
For `COc1ncc(NC(=O)c2csc(-c3ccccc3)n2)cc1S(=O)(=O)Nc1ccc(Cl)nc1C` [compound 1382, N-(5-(N-(6-chloro-2-methylpyridin-3-yl)sulfamoyl)-6-methoxypyridin-3-yl)-2-phenylthiazole-4-carboxamide] the same measures were 20 to 100 µM and 200 to 300%.
Consider `COc1ncc(NC(=O)c2csc(-c3ccccc3)n2)cc1S(=O)(=O)Nc1ncc(Cl)cn1` [compound 1383, N-(5-(N-(5-chloropyrimidin-2-yl)sulfamoyl)-6-methoxypyridin-3-yl)-2-phenylthiazole-4-carboxamide], for which the EC50 fell in the range of 20 to 100 µM and the Emax was > 300%.
